In PubChem BioAssay (NCI):
Where “and” joins values, the source holds several entries; their conditions need not be identical. Equal entries are not always repeated.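 Briefly, cells in 96-well plates were exposed to five compound concentrations for 48 h, and endpoints were estimated by linear interpolation. GI50: concentration for 50% inhibition of growth. TGI is the concentration that stops growth completely.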

Experiments:
Assay in all cases: DTP human tumour cell line panel, 48 h
SF-268 CNS = tested on: SF-268 CNS
LOX IMVI melanoma = tested on: LOX IMVI melanoma
UACC-62 melanoma = tested on: UACC-62 melanoma
M14 melanoma = tested on: M14 melanoma
HL-60(TB) leukemia = tested on: HL-60(TB) leukemia
OVCAR-8 ovarian = tested on: OVCAR-8 ovarian
OVCAR-4 ovarian = tested on: OVCAR-4 ovarian
DU-145 prostate = tested on: DU-145 prostate
IGROV1 ovarian = tested on: IGROV1 ovarian
MCF7 breast = tested on: MCF7 breast

Row | SMILES | TGI (SF-268 CNS) [µM] | TGI (LOX IMVI melanoma) [µM] | TGI (UACC-62 melanoma) [µM] | TGI (M14 melanoma) | TGI (HL-60(TB) leukemia) [µM] | TGI (OVCAR-8 ovarian) | TGI (OVCAR-4 ovarian) | GI50 (DU-145 prostate) [µM] | TGI (DU-145 prostate) [µM] | GI50 (IGROV1 ovarian) | TGI (IGROV1 ovarian) | GI50 (SF-268 CNS) [µM] | GI50 (LOX IMVI melanoma) [µM] | GI50 (UACC-62 melanoma) [µM] | GI50 (M14 melanoma) [µM] | GI50 (HL-60(TB) leukemia) [µM] | GI50 (OVCAR-4 ovarian) [µM] | GI50 (MCF7 breast) [µM] | TGI (MCF7 breast) | GI50 (OVCAR-8 ovarian) [µM]
1 | O=[N+]([O-])c1nccn1COCCBr | > 100 | > 100 | > 100 | > 100 µM | > 100 | > 100 µM | > 100 µM | – | – | – | – | – | – | – | – | – | – | – | – | –
2 | NC(=O)c1ccc(C2C3=C(CCCC3=O)OC3=C2C(=O)c2ccccc2C3=O)cc1 (stereo not given) | 1.93 | 1.06 | 0.52 | 2.03 µM | 0.538 | – | 0.95 µM | 0.465 | 1.59 | 0.641 µM | 2.12 µM | 0.466 | 0.181 | 0.217 | 0.609 | 0.239 | 0.228 | 0.233 | 0.824 µM | –
3 | CNC(=S)N/N=C/c1ccc([N+](=O)[O-])s1 | > 10 | > 10 | > 10 | > 10 µM | > 10 | > 10 µM | > 10 µM | – | > 10 | – | > 10 µM | – | – | – | – | – | – | – | – | –
4 | CCN(CC)c1ccc2c(c1)Nc1cc(=C(C#N)C#N)c3ccccc3c1=N2 | > 100 | > 100 | > 100 | > 100 µM | > 100 | > 100 µM | > 100 µM | – | – | – | > 100 µM | – | – | – | – | – | – | – | – | –
5 | O=C1C2Cc3ccccc3CN2C(=O)N1CCN1CCCC1 (stereo not given) | > 100 | > 100 | > 100 | > 100 µM | > 100 | > 100 µM | > 100 µM | – | – | – | > 100 µM | – | – | – | – | – | – | – | – | –
6 | Cc1cc2c(=O)c3ccccc3[nH]c2c(C(=O)O)c1C | – | – | > 100 | – | > 100 | > 100 µM | > 100 µM | – | – | – | > 100 µM | – | – | – | – | – | – | – | – | –
7 | CCOC(=O)COS(=O)(=O)C(F)(F)F | > 100 | 34 | > 100 | > 100 µM | > 100 | > 100 µM | > 100 µM | – | – | – | > 100 µM | – | – | – | – | – | – | – | – | –
8 | CCOC(=O)C(=O)Nc1c(C(C)C)cccc1C(C)C | > 100 | – | > 100 | > 100 µM | > 100 | > 100 µM | > 100 µM | – | – | – | > 100 µM | – | – | – | – | – | – | – | – | –
9 | C[C-](O)O.O/C(=C\[C-](O)c1ccccc1)c1ccccc1.O/C(=C\[C-](O)c1ccccc1)c1ccccc1.[Nd+3] (stereo not given) | 32.5 | 17.7 | 45.3 | 33.8 µM | 8.7 | 55 µM | > 100 µM | – | – | 14.1 µM | > 100 µM | 6.44 | 4.28 | 6.56 | 14.6 | 2.03 | 15.9 | – | – | 4.48
10 | C=C(C=O)CCCC(C)[C@@H]1CCC23CC12CCC1[C@@]2(C)CCC(OC(C)=O)C(C)(C)C2CC(OC2OC(COC(C)=O)C(O)C(O)C2O)[C@]13C (stereo not given in full) | 12.3 | 1.43 | 3.49 | 4.57 µM | 2.04 | 11.1 µM | 11.1 µM | – | – | – | 7.9 µM | – | – | – | – | – | – | – | – | –
11 | O=C1CCC(O)=C1O | > 100 | > 100 | > 100 | > 100 µM | > 100 | > 100 µM | > 100 µM | – | – | – | > 100 µM | – | – | – | – | – | – | – | – | –
12 | CCOc1ccccc1NC(=O)CCc1nc(=S)[nH][nH]1 | > 100 | > 100 | > 100 | > 100 µM | > 100 | > 100 µM | > 100 µM | – | – | – | > 100 µM | – | – | – | – | – | – | – | – | –
13 | CCN1CSC(=S)N(CC)C1 | > 100 | – | > 100 | > 100 µM | 47.4 | > 100 µM | > 100 µM | – | > 100 | – | > 100 µM | – | – | – | – | – | – | – | > 100 µM | –
14 | Cc1c(Cl)cccc1NC(=O)CC1C(=O)Nc2ccccc2S1(=O)=O (stereo not given) | 38.2 | 29.1 | 31.7 | 29.3 µM | 16 | 34.5 µM | 67.2 µM | – | – | – | 31.7 µM | – | – | – | – | – | – | – | – | –
15 | c1cc(CNC2C3CCC(C3)C2c2c[nH]c3ccccc23)cc(CNC2C3CCC(C3)C2c2c[nH]c3ccccc23)c1 (stereo not given) | – | – | 3.04 | 5.3 µM | 4.21 | – | 3.24 µM and 3.34 µM | – | 2.3 | – | 2.69 µM | – | – | – | – | 1.6 | – | – | – | –
16 | O=C([CH-]C(=O)C(F)(F)F)c1ccccc1.O=C([CH-]C(=O)C(F)(F)F)c1ccccc1.O=C([CH-]C(=O)C(F)(F)F)c1ccccc1.O=C([CH-]C(=O)C(F)(F)F)c1ccccc1.[Eu+3].c1ccncc1 | 59.7 | 21 | 63.3 | 39.5 µM | 13.8 | > 100 µM | > 100 µM | – | – | 7.88 µM | > 100 µM | 6.21 | 5.78 | 6.67 | 9.52 | 3.69 | 7.62 | – | – | 6.58
17 | COC(=O)c1c(-c2ccccc2)sc(-c2cccc3ccccc23)c1C(=O)OC | > 100 | > 100 | > 100 | > 100 µM | > 100 | > 100 µM | > 100 µM | – | – | – | > 100 µM | – | – | – | – | – | – | – | – | –
18 | C=C=C(C(=O)OC)S(=O)c1ccc([N+](=O)[O-])cc1[N+](=O)[O-] (stereo not given) | > 74.6 | 46.4 | > 71.4 | > 69.5 µM | 45.3 | 55.1 µM | 63.6 µM | – | – | – | 97.5 µM | – | – | – | – | – | – | – | – | –
19 | CN=C1SC(=Nc2ccc(N(C)C)cc2)N1C | > 100 | > 100 | > 100 | > 100 µM | > 100 | > 100 µM | > 100 µM | – | – | – | > 100 µM | – | – | – | – | – | – | – | – | –
20 | CN[C@@H]1C[C@H]2O[C@@](C)([C@@H]1OC)n1c3ccccc3c3c4c(c5c6ccccc6n2c5c31)C(=O)N[C@@H]4O | – | 0.406 | 0.908 | 0.3 µM and 1.25 µM | – | 0.164 µM and 0.719 µM | – | – | 1.16 | 0.0129 µM and 0.0461 µM | 0.0617 µM and 0.341 µM | 0.008 | – | – | 0.0311 | – | 0.0286 | – | 0.3 µM and 2.51 µM | 0.0354
21 | CC(=O)O[C@@H]1C2C(=O)OC(=O)C2C2CCC[C@]23O[C@H]13 (stereo not given in full) | > 100 | – | > 100 | > 100 µM | > 100 | > 100 µM | > 100 µM | – | – | – | > 100 µM | – | – | – | – | – | – | – | – | –
22 | CCOC(=O)CC1NC(=O)CS1 (stereo not given) | > 100 | – | > 100 | > 100 µM | > 100 | > 100 µM | > 100 µM | – | – | – | > 100 µM | – | – | – | – | – | – | – | – | –
